Reference: patent US11111248B2, “Crystal form of 2-(6-methyl-pyridin-2-yl)-3-yl-[6-amido-quinolin-4-yl]-5,6-dihydro-4H-pyrrolo[1,2-B]pyrazole, preparation method therefor and pharmaceutical composition thereof” (Hangzhou SoliPharma Co., Ltd., priority 2017, dated 2021)
In brackets after ≈: the same amount, converted by molar mass. Entries after “also recorded” stand apart in the source; their conditions may differ.

Experiments:
Type in all cases: physicochemical
[1] = water solubility test; settings: for Solubility: 25° C.±2° C., visual clarity, 5 mg sample, max 100 mL water
Experimental: Accurately weighed 5 mg samples in a 200 mL flask which was in a water bath with temperature 25° C.±2° C., added water in a geometric fashion the flask, stirred (about 200 r/min), and observed by naked eyes to see if it was clear. Water was added every 3 mins, maximum water amount 100 mL.

[2] = isothermal sorption (dynamic vapor sorption); settings: 0% RH to 80% RH; for hygroscopicity: isothermal sorption
Experimental: Dynamic vapor sorption data and isothermal sorption data were collected on TA Instruments Q5000 TGA. Method: A sample of 1 to 10 mg was placed in a platinum pan; the weight change of the sample during the change in relative humidity from 0% to 80% to 0% was measured.

[3] = thermal phase stability from DSC and TGA thermograms; settings: for phase transformation on heating: DSC and TGA thermograms
Experimental: […] data were collected on TA Instruments Q200 DSC. Method: A sample of 1 to 10 mg was placed in an aluminum pan with a pin-holed lid, and the sample was heated from room temperature to 200° C. at a heating rate of 10° C./min under the protection of dry nitrogen purge at 40 mL/min.
Thermogravimetric analysis data were collected on TA Instruments Q500 TGA. Method: A sample of 5 to 15 mg was placed in a platinum pan, using High Resolution™, the sample was heated from room temperature to 350° C. at a heating rate of 10° C./min under the protection of dry nitrogen purge at 40 mL/min.

Row | water solubility [1] | Solubility [1] | hygroscopicity [2] | phase transformation on heating [3] | weight change, isothermal sorption curve [2] | dehydration and start of phase transition temperature ([3]; DSC) | phase transition temperature lower than that of Form 2 ([3]; DSC thermograms, difference to Form 2) | Compound
1 | about 150 μg/mL | 150 µg/mL (≈ 406 µM) | non-hygroscopic | no phase transformation before melting |  |  |  | Cc1cccc(-c2nn3c(c2-c2ccnc4ccc(C(N)=O)cc24)CCC3)n1 [LY2157299 Form 3, 2-(6-methyl-pyridin-2-yl)-3-(6-amido-quinolin-4-yl)-5,6-dihydro-4h-pyrrolo[1,2-b]pyrazole]
2 | about 100 ug/mL | 100 µg/mL (≈ 271 µM) | slightly hygroscopic |  | 0.95% |  |  | Cc1cccc(-c2nn3c(c2-c2ccnc4ccc(C(N)=O)cc24)CCC3)n1 [LY2157299 Form 4, 2-(6-methyl-pyridin-2-yl)-3-(6-amido-quinolin-4-yl)-5,6-dihydro-4h-pyrrolo[1,2-b]pyrazole]
3 | about 100 μg/mL | 100 µg/mL (≈ 271 µM) |  |  |  |  |  | Cc1cccc(-c2nn3c(c2-c2ccnc4ccc(C(N)=O)cc24)CCC3)n1 [LY2157299 Form 7, 2-(6-methyl-pyridin-2-yl)-3-(6-amido-quinolin-4-yl)-5,6-dihydro-4h-pyrrolo[1,2-b]pyrazole]

Continued, molecule first:

Row | Compound | water solubility [1] | Solubility [1] | hygroscopicity [2] | phase transformation on heating [3] | weight change, isothermal sorption curve [2] | dehydration and start of phase transition temperature ([3]; DSC) | phase transition temperature lower than that of Form 2 ([3]; DSC thermograms, difference to Form 2)
4 | Cc1cccc(-c2nn3c(c2-c2ccnc4ccc(C(N)=O)cc24)CCC3)n1 [LY2157299 Form 1, 2-(6-methyl-pyridin-2-yl)-3-(6-amido-quinolin-4-yl)-5,6-dihydro-4h-pyrrolo[1,2-b]pyrazole] | about 160 ug/mL | 160 µg/mL (≈ 433 µM) | non-hygroscopic | no phase transformation before melting |  |  | 
5 | Cc1cccc(-c2nn3c(c2-c2ccnc4ccc(C(N)=O)cc24)CCC3)n1 [LY2157299 Form 2, 2-(6-methyl-pyridin-2-yl)-3-(6-amido-quinolin-4-yl)-5,6-dihydro-4h-pyrrolo[1,2-b]pyrazole] | about 200 ug/mL | 200 µg/mL (≈ 541 µM) | slightly hygroscopic |  | 0.25% |  | 
6 | Cc1cccc(-c2nn3c(c2-c2ccnc4ccc(C(N)=O)cc24)CCC3)n1 [LY2157299 Monohydrate, 2-(6-methyl-pyridin-2-yl)-3-(6-amido-quinolin-4-yl)-5,6-dihydro-4h-pyrrolo[1,2-b]pyrazole] |  | <50 µg/mL | slightly hygroscopic | dehydrates under temperature and its phase transformes; also recorded: dehydrates under temperature and has phase transformation |  | 133 °C | 60 °C
